Here are results for two molecules from patent US6936615B2, “Heteroaryl derivatives and their use as medicaments” (Zentaris GmbH, priority 2000, dated 2005).

The subject of data set [1] is ovary adenocarcinoma line SKOV-3 (ATCC HTB77). The data set is described as follows: XTT test for cellular dehydrogenase activity (proliferation test), SKOV-3. It counts as cell-based. Conditions: Homo sapiens, SK-OV-3, values determined from 5 substance concentrations, 45 h incubation + 3 h XTT, read-out: XTT-Assay IC50 SKOV-3 (in-vitro cytotoxicity). On the procedure:
(§1) In a proliferation test, the antiproliferative activity of the substance D-43411 was examined using established tumor cell lines. In the test used, the cellular dehydrogenation activity is determined, which makes it possible to determine the vitality of the cell and, indirectly, the cell count. The cell lines used are the human cervical carcinoma cell lines KB/HeLa (ATCC/CCL17), the murine lymphocyte leukaemia L1210 (ATCC CCL-219), the human breast adenocarcinoma line MCF7/ATCC HTB22) and the ovary adenocarcinoma line SKOV-3 (ATCC HTB77). These are established cell lines which are very well characterized and were obtained from ATCC and cultured.
(§2) The adherently growing tumor cell lines HeLa/KB, SKOV-3 and MCF7 and the L1210 leukaemia line, which grows in suspension, were cultivated under standard conditions in an incubator with gas inlet at 37° C., 5% CO2 and 95% atmospheric humidity. […]
(§3) For the XTT assay, 1 mg/ml of XTT (sodium 3′-[1-(phenylaminocarbonyl)-3,4-tetrazolium]-bis(4-methoxy-6-nitro)benzenesulfonic acid) is dissolved in RPMI-1640 medium without Phenol Red. […] The cell plates are then incubated in the incubator with gas inlet for a further 3 h, and the optical density (OD490nm) is determined in a photometer.
(§4) Using the OD490nm obtained, the inhibition in percent relative to the control is calculated. […]
In general terms: Tetrazolium assays rely on reduction of a dye to a coloured formazan, in cell work by metabolically active cells.

The subject of data set [2] is murine lymphocyte leukaemia L1210 (ATCC CCL-219). Nature of the data set: XTT test for cellular dehydrogenase activity (proliferation test), L1210. The class given is cell-based. The conditions noted are these: Mus musculus, values determined from 5 substance concentrations, 45 h incubation + 3 h XTT, read-out: XTT-Assay IC50 L1210 (in-vitro cytotoxicity). On the procedure:
as §1, §2, §3, §4

Data set [3] relates to human cervical carcinoma cell lines KB/HeLa (ATCC/CCL17). Nature of the data set: XTT test for cellular dehydrogenase activity (proliferation test), KB/HeLa. It counts as cell-based. The conditions noted are these: values determined from 5 substance concentrations, 45 h incubation + 3 h XTT, read-out: XTT-Assay IC50 KB/HeLa (in-vitro cytotoxicity). On the procedure: as §1, §2, §3, §4

Data set [4] deals with human breast adenocarcinoma line MCF7 (ATCC HTB22). Nature of the data set: XTT test for cellular dehydrogenase activity (proliferation test), MCF7. The conditions noted are these: test period of 48 h. The class given is cell-based. The protocol:
as §1, §2, §3, §4

A word on the melting point: it is the temperature of the solid-liquid transition. In turn, `COc1cc(OC)cc(N2CCN(C(=O)c3ccnc4ccccc34)CC2)c1` registered a melting point of 146 to 148 °C.

As for `COc1cc(OC)cc(N2CCN(C(=O)C3c4ccccc4NC4C=CC=CC43)CC2)c1` [D-43411], the IC50 is less than 0.3 ng/mL in data set [1]; less than 0.3 ng/mL in data set [2]; less than 0.3 ng/mL in data set [3]; greater than 3160 ng/mL in data set [4] (Homo sapiens, values determined from 5 substance concentrations, read-out: XTT-Assay IC50 MCF7 (in-vitro cytotoxicity)). Moreover, the “inhibition (antiproliferative effect) in MCF7” value in data set [4] (at 3.16_g/ml) was 18%.
